In PMC9021288 (Nature Communications, 2022):
Several values for one entry are separate records, joined by “and”; a condition that tells them apart may be missing. Equal values may be shown once. Read-outs that look alike come from different tables or passages of the source.

System: P. falciparum Dd2-B2
Test: 72-h flow cytometry IC50 assay, Dd2-B2 and resistant Dd2-B2
Assay type: cell-based, Plasmodium falciparum
Procedure: Replication assays were performed using a SYBR Green method as described previously. Briefly, asynchronous parasites were diluted to 0.83% parasitemia, 3% hematocrit in 30 µl medium, and added to 30 µl of diluted compounds in medium (0.1% DMSO final concentration) in black 384-wells plates. After a 72-h incubation, 30 µl of SYBR Green diluted in lysis buffer was added according to the manufacturer’s protocol (Life Technologies). Fluorescence intensity was measured on a BioTek Synergy 2 Plate Reader after 1-h incubation and was normalized to a DMSO control (100% growth) and DHA- or epoxomicin-treatment (no growth). […] Parasite survival was assessed by flow cytometry on an Accuri C6 (BD Biosciences) with BD C6 Plus software using SYBR Green and MitoTracker Deep Red FM (Life Technologies) as nuclear stain and vital dye, respectively, and data were analyzed using FlowJo (10.5.0). […] Luminescence was measured after 72 h using the Renilla-Glo(R) Luciferase Assay System (Promega E2750) and the GlomAX® Discover Multimode Microplate Reader (Promega). The luminescence values were normalized to DMSO vehicle (100% growth) and 200 nM chloroquine-treated (no growth) samples as controls.

C[C@@H](CNC(=O)[C@H](O)C(C)(C)CO)NC(=O)c1cc(F)c(F)cc1F [MMV693183]
IC50 shift (1x10^9 Dd2-B2 selected at 12-27 nM): 13 x
Parasite growth, dose-response (No drug = 100) (Dd2-B2, Log concentration (M) -8.61866): 46.9671 and 65.9341 and 69.186 and 60.7743
Parasite growth, dose-response (No drug = 100) (Dd2-B2, Log concentration (M) -8.91969): 65.3709 and 69.9634 and 65.2132 and 74.7261
Parasite growth, dose-response (No drug = 100) (Dd2-B2, Log concentration (M) -9.22072): 72.0216 and 80.9524 and 81.3953 and 76.7714
Parasite growth, dose-response (No drug = 100) (Dd2-B2, Log concentration (M) -9.52175): 91.6867 and 88.6447 and 91.0853 and 95.8364
Parasite growth, dose-response (No drug = 100) (Dd2-B2, Log concentration (M) -9.82278): 93.0054 and 90.8425 and 98.7403 and 95.3251
IC50 (Dd2-B2, read-out: IC50): 1.79 nM and 2.73 nM and 3.55 nM and 3.05 nM
IC50 (Dd2-B2, read-out: mean IC50): 3 nM
Parasite growth, dose-response (No drug = 100) (FL1, Log concentration (M) -7.11351): 0
Parasite growth, dose-response (No drug = 100) (FL1, Log concentration (M) -7.41454): 70.2458 and 55.9122
Parasite growth, dose-response (No drug = 100) (FL1, Log concentration (M) -7.71557): 80.5951 and 111.824
Parasite growth, dose-response (No drug = 100) (FL1, Log concentration (M) -8.0166): 100 and 101.689
Parasite growth, dose-response (No drug = 100) (FL1, Log concentration (M) -8.31763): 93.5317 and 96.6216
Parasite growth, dose-response (No drug = 100) (FL1, Log concentration (M) -8.61866): 96.119 and 101.689
Parasite growth, dose-response (No drug = 100) (FL1, Log concentration (M) -8.91969): 78.0078 and 118.581
Parasite growth, dose-response (No drug = 100) (FL1, Log concentration (M) -9.22072): 94.8254 and 105.068
Parasite growth, dose-response (No drug = 100) (FL1, Log concentration (M) -9.52175): 101.294 and 83.1081
Parasite growth, dose-response (No drug = 100) (FL1, Log concentration (M) -9.82278): 85.7697 and 115.203
IC50 (FL1, read-out: IC50): 44.2 nM and 38.8 nM
Parasite growth, dose-response (No drug = 100) (FL2, Log concentration (M) -7.11351): 0
Parasite growth, dose-response (No drug = 100) (FL2, Log concentration (M) -7.41454): 60.4288 and 62.4542
Parasite growth, dose-response (No drug = 100) (FL2, Log concentration (M) -7.71557): 82.846 and 84.7985
Parasite growth, dose-response (No drug = 100) (FL2, Log concentration (M) -8.0166): 96.8811 and 77.6557
Parasite growth, dose-response (No drug = 100) (FL2, Log concentration (M) -8.31763): 88.499 and 88.6447
Parasite growth, dose-response (No drug = 100) (FL2, Log concentration (M) -8.61866): 105.458 and 84.9817
Parasite growth, dose-response (No drug = 100) (FL2, Log concentration (M) -8.91969): 80.5068 and 77.1062
Parasite growth, dose-response (No drug = 100) (FL2, Log concentration (M) -9.22072): 101.365 and 80.4029
Parasite growth, dose-response (No drug = 100) (FL2, Log concentration (M) -9.52175): 71.345 and 104.029
Parasite growth, dose-response (No drug = 100) (FL2, Log concentration (M) -9.82278): 92.0078 and 88.4615
IC50 (FL2, read-out: IC50): 40.7 nM and 41.7 nM
Parasite growth, dose-response (No drug = 100) (FL3, Log concentration (M) -7.11351): 0
Parasite growth, dose-response (No drug = 100) (FL3, Log concentration (M) -7.41454): 54.4365 and 48.2063
Parasite growth, dose-response (No drug = 100) (FL3, Log concentration (M) -7.71557): 83.9329 and 95.9641
Parasite growth, dose-response (No drug = 100) (FL3, Log concentration (M) -8.0166): 96.6427 and 92.1525
Parasite growth, dose-response (No drug = 100) (FL3, Log concentration (M) -8.31763): 96.6427 and 93.0493
Parasite growth, dose-response (No drug = 100) (FL3, Log concentration (M) -8.61866): 96.1631 and 96.6368
Parasite growth, dose-response (No drug = 100) (FL3, Log concentration (M) -8.91969): 103.118 and 89.9103
Parasite growth, dose-response (No drug = 100) (FL3, Log concentration (M) -9.22072): 91.1271 and 102.466
Parasite growth, dose-response (No drug = 100) (FL3, Log concentration (M) -9.52175): 106.954 and 82.7354
Parasite growth, dose-response (No drug = 100) (FL3, Log concentration (M) -9.82278): 109.113 and 91.4798
IC50 (FL3, read-out: IC50): 38.2 nM and 37.9 nM
